Results as given in ChEMBL document CHEMBL5226379, “Hypouricemic Actions of the Pericarp of Mangosteen in Vitro and in Vivo” (J Nat Prod, 2023).
Calls of active or inactive are those of the source. The rule behind the calls is not given here.

Legend:
[1] = test system: Mus musculus; assay: Hypouricemic activity in potassium oxonate-induced hyperuricemic Kunming mouse model assessed as serum XDH level at 10 mg/kg, IG pre-administered via gavage twice daily for 5 times followed by potassium oxonate injection for 1 hrs prior to last dose; assay type: functional; details: time 5 day
[2] = target: Xanthine dehydrogenase/oxidase (Homo sapiens, UniProt P47989); assay: Inhibition of XOD (unknown origin) using xanthine as substrate assessed as inhibition of uric acid generation at 0.54 mg/L preincubated for 15 mins followed by xanthine addition and measured by spectrophotometric analysis relative to control
[3] = test system: Mus musculus; assay: Hypouricemic activity in potassium oxonate-induced hyperuricemic Kunming mouse model assessed as serum urate level at 10 mg/kg, IG pre-administered via gavage twice daily for 5 times followed by potassium oxonate injection for 1 hrs prior to last dose by phosphotungstic acid method; assay type: functional; details: time 5 day
[4] = test system: Mus musculus; assay: Hypouricemic activity in potassium oxonate-induced hyperuricemic Kunming mouse model assessed as serum XOD level at 10 mg/kg, IG pre-administered via gavage twice daily for 5 times followed by potassium oxonate injection for 1 hrs prior to last dose; assay type: functional; details: time 5 day
[5] = test system: Mus musculus; assay: Hypouricemic activity in potassium oxonate-induced hyperuricemic Kunming mouse model assessed as decrease in serum uric acid level at 5 mg/kg, IG pre-administered via gavage twice daily for 5 times followed by potassium oxonate injection for 1 hrs prior to last dose by phosphotungstic acid method relative to control; assay type: functional; set-up: scale not given: the % may be the effect or the level left; details: time 5 day
[6] = test system: Mus musculus; assay: Hypouricemic activity in potassium oxonate-induced hyperuricemic Kunming mouse model assessed as decrease in serum uric acid level at 5 mg/kg, IG pre-administered via gavage twice daily for 5 times followed by potassium oxonate injection for 1 hrs prior to last dose by phosphotungstic acid method; assay type: functional; details: for Activity: time 5.0 day
[7] = test system: Mus musculus; assay: Anti-hyperouricemic activity in uric acid-induced hyperuricemic Kunming mouse model assessed as decrease in serum uric acid level at 25 mg/kg, IG pre-administered with uric acid for 30 mins followed by compound treatment and measured after 2 hrs by phosphotungstic acid method; assay type: functional, organism-based
[8] = test system: Rattus norvegicus; assay: (§1) Anti-hyperuricemic activity against potassium oxonate-induced hyperuricemic Sprague-Dawley rat model assessed as glomerular load of urate measured per body surface area of 0.0311 m2 at 12.5 mg/kg, po pre-administered via gavage twice daily for 5 times followed by potassium oxonate injection for 1 hrs prior to last dose and measured after 3 hrs; assay type: functional; details: time 123 hrs
[9] = test system: Rattus norvegicus; assay: as §1, with “clearance” for “glomerular load”, “creatinine” for “urate”; assay type: functional; details: time 123 hrs
[10] = test system: Rattus norvegicus; assay: (§2) Anti-hyperuricemic activity against potassium oxonate-induced hyperuricemic Sprague-Dawley rat model assessed as urinary urate at 12.5 mg/kg, po pre-administered via gavage twice daily for 5 times followed by potassium oxonate injection for 1 hrs prior to last dose and measured after 3 hrs; assay type: functional; details: time 123 hrs
[11] = test system: Rattus norvegicus; assay: (§3) Anti-hyperuricemic activity against potassium oxonate-induced hyperuricemic Sprague-Dawley rat model assessed as urinary urate level at 12.5 mg/kg, po pre-administered via gavage twice daily for 5 times followed by potassium oxonate injection for 1 hrs prior to last dose and measured after 3 hrs; assay type: functional; details: time 123 hrs
[12] = test system: Rattus norvegicus; assay: Anti-hyperuricemic activity against potassium oxonate-induced hyperuricemic Sprague-Dawley rat model assessed as urine volume at 12.5 mg/kg, po pre-administered via gavage twice daily for 5 times followed by potassium oxonate injection for 1 hrs prior to last dose and measured after 3 hrs; assay type: functional; details: time 123 hrs
[13] = test system: Rattus norvegicus; assay: as §3, with “creatinine” for “urate”; assay type: functional; details: time 123 hrs
[14] = test system: Rattus norvegicus; assay: as §1, with “excretion” for “glomerular load”, “urate per volume of glomerular filtration” for “urate”; assay type: functional; details: time 123 hrs
[15] = test system: Rattus norvegicus; assay: (§4) Anti-hyperuricemic activity against potassium oxonate-induced hyperuricemic Sprague-Dawley rat model assessed as serum urate level at 12.5 mg/kg, po pre-administered via gavage twice daily for 5 times followed by potassium oxonate injection for 1 hrs prior to last dose and measured after 3 hrs; assay type: functional; details: time 123 hrs
[16] = test system: Rattus norvegicus; assay: Anti-hyperuricemic activity against potassium oxonate-induced hyperuricemic Sprague-Dawley rat model assessed as serum creatinine level at 12.5 mg/kg, po pre-administered via gavage twice daily for 5 times followed by potassium oxonate injection for 1 hrs prior to last dose and measured after 3 hrs; assay type: functional; details: time 123 hrs
[17] = test system: Rattus norvegicus; assay: as §1, with “clearance” for “glomerular load”; assay type: functional; details: time 123 hrs
[18] = test system: Rattus norvegicus; assay: as §4, with “urea nitrogen” for “urate”; assay type: functional; details: time 123 hrs
[19] = test system: Rattus norvegicus; assay: as §2, with “assessed as fractional excretion of urate at” for “assessed as urinary urate at”, “3 hrs relative to control” for “3 hrs”; assay type: functional; details: time 123 hrs
[20] = Toxicity in Kunming mouse assessed as decrease in serum uric acid level at 1 mg/kg; assay type: organism-based; details: in vivo
[21] = test system: Mus musculus; assay: Hypouricemic activity in potassium oxonate-induced hyperuricemic Kunming mouse model assessed as decrease in serum XOD level at 1 mg/kg, IG pre-administered via gavage twice daily for 5 times followed by potassium oxonate injection for 1 hrs prior to last dose; assay type: functional, organism-based; details: time 5.0 day
[22] = species on record: Homo sapiens; assay: Inhibition of uricase (unknown origin) using uric acid as substrate at 112.5 mg/L preincubated with compounds for 15 mins followed by uric acid addition

Sequence of Xanthine dehydrogenase/oxidase (P47989 whole entry): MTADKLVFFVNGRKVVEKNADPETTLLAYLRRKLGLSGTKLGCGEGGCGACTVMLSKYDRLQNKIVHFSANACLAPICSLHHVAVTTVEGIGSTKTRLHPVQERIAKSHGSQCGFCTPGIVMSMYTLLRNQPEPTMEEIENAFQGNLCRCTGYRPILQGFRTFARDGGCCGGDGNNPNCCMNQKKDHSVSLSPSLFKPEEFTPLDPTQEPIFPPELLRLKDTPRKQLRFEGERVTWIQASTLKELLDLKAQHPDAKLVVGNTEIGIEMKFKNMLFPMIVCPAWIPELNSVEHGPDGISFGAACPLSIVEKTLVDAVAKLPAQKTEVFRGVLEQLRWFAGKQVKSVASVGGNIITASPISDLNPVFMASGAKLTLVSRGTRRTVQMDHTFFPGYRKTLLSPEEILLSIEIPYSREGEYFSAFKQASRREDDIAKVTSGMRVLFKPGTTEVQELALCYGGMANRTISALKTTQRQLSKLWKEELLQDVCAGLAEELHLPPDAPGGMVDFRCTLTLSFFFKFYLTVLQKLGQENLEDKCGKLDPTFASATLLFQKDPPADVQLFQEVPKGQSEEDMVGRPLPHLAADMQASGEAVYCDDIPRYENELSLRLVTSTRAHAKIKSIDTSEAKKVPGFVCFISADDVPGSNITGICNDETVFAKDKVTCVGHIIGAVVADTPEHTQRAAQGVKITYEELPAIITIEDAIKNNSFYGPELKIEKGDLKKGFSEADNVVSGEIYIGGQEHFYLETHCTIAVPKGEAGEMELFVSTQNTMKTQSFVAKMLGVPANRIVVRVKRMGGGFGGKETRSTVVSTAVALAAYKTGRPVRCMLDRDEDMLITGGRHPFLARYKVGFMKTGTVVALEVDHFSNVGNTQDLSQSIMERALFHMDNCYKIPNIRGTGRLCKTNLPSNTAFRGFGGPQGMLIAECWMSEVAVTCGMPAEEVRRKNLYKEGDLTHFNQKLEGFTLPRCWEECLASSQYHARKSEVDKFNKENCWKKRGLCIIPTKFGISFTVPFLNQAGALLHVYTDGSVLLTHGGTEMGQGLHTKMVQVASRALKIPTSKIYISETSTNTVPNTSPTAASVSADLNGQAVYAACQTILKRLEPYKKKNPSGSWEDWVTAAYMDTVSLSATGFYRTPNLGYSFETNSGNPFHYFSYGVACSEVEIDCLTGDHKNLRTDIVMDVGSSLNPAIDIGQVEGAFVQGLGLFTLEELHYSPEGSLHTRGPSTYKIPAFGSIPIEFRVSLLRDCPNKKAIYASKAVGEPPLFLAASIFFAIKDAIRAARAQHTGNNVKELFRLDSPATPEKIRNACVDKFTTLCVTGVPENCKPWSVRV

## Oc1ncnc2[nH]ncc12 [ALLOPURINOL]
[1]
  Activity: 2.59 U/L
[2]
  inhibition at 0.54 µg/mL: 42.7%
[3]
  Activity: 180.26 µmol/L
[4]
  Activity: 11.46 U/L
[5]
  Activity: 64%
[6]; time 5 day
  serum uric acid level: 117.86 µmol/L

## COc1c(O)cc2oc3cc4c(c(O)c3c(=O)c2c1CC=C(C)C)C=CC(C)(C)O4
[6]
  Activity: inactive

## CCc1oc2ccccc2c1C(=O)c1cc(Br)c(O)c(Br)c1 [BENZBROMARONE]
[7]
  Activity: Active
[8]
  Activity: 3.8 µmol/min
[9]
  Activity: 14.6 mL/min
[10]
  Activity: 392 µmol
[11]
  Activity: 2.7 mmol/L
[12]
  Activity: 4.6 mL
[13]
  Activity: 1 mmol/L
[14]
  Activity: 5.3 µmol/L
[15]
  Activity: 258 µmol/L
[16]
  Activity: 56.1 µmol/L
[17]
  Activity: 8.4 mL/min
[18]
  Activity: 9.7 mmol/L
[19]
  Activity: 66%

## CC(C)=CCc1c(O)cc2oc3cc(O)c(O)c(CC=C(C)C)c3c(=O)c2c1O
[6]
  Activity: inactive

## Cc1nc(-c2ccc(OCC(C)C)c(C#N)c2)sc1C(=O)O [FEBUXOSTAT]
[20]
  Activity: Toxic
[21]
  Activity: Active

## O=C(O)c1nc(=O)[nH]c(=O)[nH]1
[22]
  inhibition: 96.5%
